Laboratory results: patent US8993556B2, “Resorcinol derivatives as HSP90 inhibitors” (priority 2009, dated 2015)
Read-outs that look alike come from different tables or passages of the source.

Columns and labels:
His-HSP90 N-term domain = assay: Determination of KD Via Biacore; assay type: binding; conditions: Biacore T100
Experimental: The evaluation of the binding affinity (KD) of the compounds of formula (I) to the HSP90 protein was done using Biacore T100.
His-HSP90 N-term domain was immobilized by capture of his tag by the Ab previously covalently bound to the chip (CM5) surface.
The compounds were analyzed using the following running buffer: 20 mM Tris/HCl pH 7.6, 150 mM KCl, 5 mM MgCl2, 0.05% P20 and 1% DMSO. The flow rate was 50 ul/min with and association time of 60 seconds.
The cpds were diluted in running buffer from 100× stock solution; the different conc injected were obtained from a sequential dilution in order to have the same DMSO conc. in each sample and avoid any solvent correction.

[1] = test system: Her2 protein levels in BT474 breast cancer cells; assay: Her2 Degradation Assay; assay type: cell-based; conditions: Homo sapiens
Experimental: The potencies of the compounds of the present invention were evaluated by measuring the Her2 degradation as a marker for HSP90 inhibition.
HSP90 is a key component of a chaperone machinery that catalyzes the folding and quality control of several proteins. Its inhibition impairs the capacity to fold or stabilize its client proteins, leading to the proteosomal dependent degradation of these unfolded proteins. […] Cellular activity of HSP90 inhibitors was assessed by measuring the induced loss of Her2 protein levels in BT474 breast cancer cells (ATCC #HTB-20). Cellular Her2 levels were measured by immunocytochemistry, and quantified using an ArrayScan vTi instrument (Cellomics Thermo Scientific).
Cellular activity of HSP90 inhibitors was assessed by measuring the induced loss of Her2 protein levels in BT474 breast cancer cells (ATCC #HTB-20). Cellular Her2 levels were measured by immunocytochemistry, and quantified using an ArrayScan vTi instrument (Cellomics Thermo Scientific).
Studies were performed as follows: 5000 cells/well are seeded in 96 well plates (Perkin Elmer) in DMEM/5% FCS and incubated for 48 hours at 37° C., 5% CO2.
Medium is then replaced with fresh medium containing test compounds at the required concentration. Concentration curves are prepared in DMEM/10% FCS from compound stocks in DMSO, and final DMSO concentration is 0.1% (v/v). Duplicate wells for each concentration point are prepared, with a typical highest compound concentration of 30 μM. […] Plates are incubated for 20 minutes at room temperature, then wells are washed in PBS and cells permiabilised by incubating with PBS containing 0.3% Triton X-100 for 15 minutes at room temperature. Non-specific binding sites are blocked by incubating wells for 1 hour in PBS containing 3% (w/v) BSA. Wells are then incubated for 1 hour at room temperature in PBS containing anti Her2 mouse monoclonal (Anti-c-ErbB2/c-Neu, Mouse mAb 3B5, Calbiochem Cat N^o OP15) diluted 1:100 in 1% (w/v) BSA. […] After washing a further 3 times in PBS, cellular Her2 immunoreactivity is assessed using the ArrayScan vTi instrument, with a Zeiss 10× 0.5 N.A. objective, and applying the Cytotoxity.V3 algorithm (Cellomics/Thermo Fisher) with a XF100 filter. At least 10 fields, corresponding to at least 900 cells, are read for each well.
IC50 is the response; IC50 starts at Bottom and goes to Top with a sigmoid shape. In Vitro Cell Proliferation Assay

[2] = test system: human ovarian carcinoma cell line A2780 transplanted in immunodeficient mice; assay: In Vivo Antitumor Efficacy; set-up: species or system mouse; conditions: for TGI: A2780 in athymic mice
Experimental: Antitumor activity of HSP90 inhibitors was assessed in vivo using the human ovarian carcinoma cell line A2780 transplanted in immunodeficient mice.
Balb Nu/Nu, male mice, (athymic mice) from Harlan, Italy, were maintained in cages with paper filter covers, food and bedding sterilized and water acidified. A2780 tumors were maintained in vivo by serial transplantation and, at the time of efficacy experiments, implanted subcutaneously in athymic mice. The treatments started 8 days later when the tumors were palpable. HSP90 inhibitors were prepared immediately before use and administered intravenously in a volume of 10 ml/kg at different doses.
Tumor growth was assessed by caliper. The two diameters were recorded, and the tumor weight was calculated according to the following formula: length (mm)×width^2 (mm)/2. The effect of the antitumor treatment was determined as tumor growth inhibition (TGI %) of treated group respect to vehicle treated controls.

[3] = test system: A2780 human ovarian cells; assay: In Vitro Cell Proliferation Assay; assay type: cell-based
Experimental: The cells were incubated at 37° C. and 5% CO2 and after 72 hours the plates were processed using CellTiter-Glo assay (Promega) following the manufacturer's instruction.
CellTiter-Glo is a homogenous method based on the quantification of the ATP present, an indicator of metabolically active cells. ATP is quantified using a system based on luciferase and D-luciferin resulting into light generation. The luminescent signal is proportional to the number of cells present in culture.
Briefly 25 μL/well reagent solution are added to each wells and after 5 minutes shacking microplates are red by a luminometer. The luminescent signal is proportional to the number of cells present in culture.

in vivo = conditions: Mouse Balb Nu/Nu, single; for clearance / half-life / Vd: 10 mg/kg IV bolus; for clearance: read-out: CL (mL/h/kg) Plasma clearance (converted); for half-life: read-out: T1/2 (h) Terminal half-life (converted); for Vd: read-out: Vdss (mL/kg) Volume of distribution at steady state; for bioavailability: 10 mg/kg oral vs 10 mg/kg IV, read-out: F % Oral bioavailability
Experimental: Calibration Standards and Quality Controls were prepared spiking blank mouse plasma with appropriate working solutions.
Sample plasma proteins were precipitated by adding 160 μL of acetonitrile/methanol 90/10 to 20 μL of mouse plasma in a 96 well plate.
After heat sealing and mixing for 3 minutes, the plate was centrifuged for 15 minutes at 4000 rpm.
The supernatant was considered as final extract and injected onto the LC-MS-MS system.
• UPLC system: Waters Acquity BSM • Mobile phase A: 95:5-5 mM Ammonium Formate pH3.5: Acetonitrile • Mobile phase B: 5:95-5 mM Ammonium Formate pH3.5: Acetonitrile • Analytical column: BEH C18 50×2.1 1.7 μm • Elution conditions:
• Total Run Time: 2.0 min. • Flow rate: 0.500 mL/min • Approximate retention time: NMS-03308086: 0.67 min. • Column oven temp: 40° C. • Autosampler type: Waters Acquity SM • Injection volume: 3 μL • Injection mode: Partial Loop with Needle Overfill • Autosampler temperature: 5° C. • MS instrument: Waters TQD • Ionisation: ES+ • Capillary: 1.5 kV • Cone: 70 V • Source Temperature: 150° C. • Desolvation Flow and Temp.: 900 L/h-400° C. • Collision Gas Flow: 0.2 mL/min • Collision Energy: 40 • MRM transitions: NMS-03308086: m/z 579.1>m/z 97.0 • Dwell Time: 0.1 seconds • LLOQ: 5.0 ng/mL • ULOQ: 5000 ng/mL • Software used: Mass Lynx 4.1 SCN627

[4] = BT-474, 8 h, read-out: Her2 Degradation IC50 (μM)
[5] = Homo sapiens, A2780, 72 h, read-out: A2780 Proliferation IC50 (μM)
[6] = BT-474, BT474 breast cancer cells, 8 hours, read-out: Her2 Degradation IC50
[7] = A2780 human ovarian cells, 72 hours, CellTiter-Glo, read-out: A2780 Proliferation IC50

| SMILES | Kd (His-HSP90 N-term domain) | IC50 [1, 4] | IC50 [3, 5] | clearance (in vivo) | half-life (in vivo) | Vd (in vivo) | bioavailability (in vivo) | IC50 [1, 6] | IC50 [3, 7] | other results |
| --- | --- | --- | --- | --- | --- | --- | --- | --- | --- | --- |
| CN1CCC(NC(=O)c2cc(-c3c(O)cc(O)cc3Oc3ccc(N(C)C)cc3)no2)CC1 [3-{2-[4-(Dimethylamino)phenoxy]-4,6-dihydroxyphenyl}-N-(1-methylpiperidin-4-yl)isoxazole-5-carboxamide] | 0.066 nM | 0.008 µM | 0.03 µM | 3430 mL/h/kg | 5.12 h | 12500 mL/kg | 25% |  |  | TGI ([2]; intravenously at 40 mkg/kg every three days): 88% |
| CN1CCC(NC(=O)c2cc(-c3c(O)cc(O)cc3Oc3ccc([N+](=O)[O-])cc3)on2)CC1 [5-[2,4-dihydroxy-6-(4-nitrophenoxy)phenyl]-N-(1-methylpiperidin-4-yl)isoxazole-3-carboxamide] |  |  |  |  |  |  |  | 0.11 µM | 0.06 µM | TGI ([2]; 30 mg/kg for 10 consecutive days, intravenously): 53%; TGI ([2]; 60 mg/kg for 10 consecutive days, intravenously): 74%; signs of toxicities ([2]; 30 and 60 mg/kg for 10 consecutive days, athymic mice): without signs of toxicities |
| CN1CCC(NC(=O)c2cc(-c3c(O)cc(O)cc3Oc3ccc(N(C)C)cc3)on2)CC1 [5-{2-[4-(Dimethylamino)phenoxy]-4,6-dihydroxyphenyl}-N-(1-methylpiperidin-4-yl)isoxazole-3-carboxamide] |  |  |  |  |  |  |  | 0.039 µM |  | TGI ([2]; intravenously at 40 mg/Kg daily): 77% |
| CN(C)c1ccc(Oc2cc(O)cc(O)c2-c2cc(C(=O)NC3CCN(C4CCC5(CC4)OCCCO5)CC3)no2)cc1 [5-{2-[4-(Dimethylamino)phenoxy]-4,6-dihydroxyphenyl}-N-[1-(1,5-dioxaspiro[5.5]undec-9-yl)piperidin-4-yl]isoxazole-3-carboxamide] | 0.079 nM | 0.038 µM | 0.021 µM |  |  |  |  |  |  | TGI ([2]; intravenously at 30 mg/Kg daily): 92% |
| CN(C)c1ccc(Oc2cc(O)cc(O)c2-c2cc(C(=O)NC3CCN(C4CCC5(CC4)OCCCCO5)CC3)no2)cc1 [5-{2-[4-(Dimethylamino)phenoxy]-4,6-dihydroxyphenyl}-N-[1-(7,12-dioxaspiro[5.6]dodec-3-yl)piperidin-4-yl]isoxazole-3-carboxamide] | 0.423 nM |  |  | 1310 mL/h/kg | 6.87 h | 5980 mL/kg | 14% | 0.045 µM | 0.023 µM |  |
